In ChEMBL document CHEMBL1135286, “Synthesis and in vitro evaluation of a novel iodinated resiniferatoxin derivative that is an agonist at the human vanilloid VR1 receptor” (Bioorg Med Chem Lett, 2002):

Tests used:
[1] = molecular target: T1, Transient receptor potential cation channel subfamily V member 1 (Homo sapiens, UniProt Q8NER1); assay: Percent induction of [Ca2+] influx compared to subsequent 80% maximal capsaicin response in human vanilloid receptor 1 expressing HEK293 cells; assay type: functional, cell-based
[2] = molecular target: T1, Transient receptor potential cation channel subfamily V member 1; assay: Induced [Ca2+] influx in Vanilloid receptor subtype 1 expressing HEK 293 cells; assay type: functional, cell-based, HEK293
[3] = molecular target: T1, Transient receptor potential cation channel subfamily V member 1; assay: Inhibition of [3H]RTX binding to human Vanilloid receptor subtype 1 expressed in HEK293 cells; assay type: cell-based
[4] = molecular target: Transient receptor potential cation channel subfamily V member 1 (Rattus norvegicus) (UniProt O35433); assay: Percent induction of [Ca2+] influx compared to subsequent 80% maximal capsaicin response in rat Vanilloid receptor 1 expressing HEK293 cells; assay type: functional, cell-based
Transient receptor potential cation channel subfamily V member 1 (Rattus norvegicus), sequence (O35433 whole entry): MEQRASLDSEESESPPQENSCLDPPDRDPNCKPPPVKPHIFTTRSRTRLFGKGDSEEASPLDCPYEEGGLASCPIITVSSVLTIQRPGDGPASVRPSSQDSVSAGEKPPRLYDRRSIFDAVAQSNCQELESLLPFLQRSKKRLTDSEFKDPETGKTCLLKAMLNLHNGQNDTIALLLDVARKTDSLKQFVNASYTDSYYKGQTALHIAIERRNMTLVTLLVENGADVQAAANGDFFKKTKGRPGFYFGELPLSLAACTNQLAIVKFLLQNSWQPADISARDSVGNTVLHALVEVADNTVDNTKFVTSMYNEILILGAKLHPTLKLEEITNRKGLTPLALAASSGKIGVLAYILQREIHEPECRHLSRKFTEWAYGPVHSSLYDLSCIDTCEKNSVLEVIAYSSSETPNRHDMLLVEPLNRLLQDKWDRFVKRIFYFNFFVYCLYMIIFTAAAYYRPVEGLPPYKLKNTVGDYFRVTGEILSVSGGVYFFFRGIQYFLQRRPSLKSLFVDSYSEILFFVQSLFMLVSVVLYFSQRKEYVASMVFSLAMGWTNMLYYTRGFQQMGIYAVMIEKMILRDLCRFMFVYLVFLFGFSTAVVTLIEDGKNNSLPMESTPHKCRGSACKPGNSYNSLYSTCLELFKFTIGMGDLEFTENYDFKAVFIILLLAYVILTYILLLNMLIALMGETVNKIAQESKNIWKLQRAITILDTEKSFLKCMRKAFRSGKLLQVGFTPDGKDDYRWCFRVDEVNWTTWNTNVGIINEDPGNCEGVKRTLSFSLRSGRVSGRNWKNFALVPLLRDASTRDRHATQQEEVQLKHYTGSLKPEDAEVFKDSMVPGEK

T1 sequence (Q8NER1 whole entry): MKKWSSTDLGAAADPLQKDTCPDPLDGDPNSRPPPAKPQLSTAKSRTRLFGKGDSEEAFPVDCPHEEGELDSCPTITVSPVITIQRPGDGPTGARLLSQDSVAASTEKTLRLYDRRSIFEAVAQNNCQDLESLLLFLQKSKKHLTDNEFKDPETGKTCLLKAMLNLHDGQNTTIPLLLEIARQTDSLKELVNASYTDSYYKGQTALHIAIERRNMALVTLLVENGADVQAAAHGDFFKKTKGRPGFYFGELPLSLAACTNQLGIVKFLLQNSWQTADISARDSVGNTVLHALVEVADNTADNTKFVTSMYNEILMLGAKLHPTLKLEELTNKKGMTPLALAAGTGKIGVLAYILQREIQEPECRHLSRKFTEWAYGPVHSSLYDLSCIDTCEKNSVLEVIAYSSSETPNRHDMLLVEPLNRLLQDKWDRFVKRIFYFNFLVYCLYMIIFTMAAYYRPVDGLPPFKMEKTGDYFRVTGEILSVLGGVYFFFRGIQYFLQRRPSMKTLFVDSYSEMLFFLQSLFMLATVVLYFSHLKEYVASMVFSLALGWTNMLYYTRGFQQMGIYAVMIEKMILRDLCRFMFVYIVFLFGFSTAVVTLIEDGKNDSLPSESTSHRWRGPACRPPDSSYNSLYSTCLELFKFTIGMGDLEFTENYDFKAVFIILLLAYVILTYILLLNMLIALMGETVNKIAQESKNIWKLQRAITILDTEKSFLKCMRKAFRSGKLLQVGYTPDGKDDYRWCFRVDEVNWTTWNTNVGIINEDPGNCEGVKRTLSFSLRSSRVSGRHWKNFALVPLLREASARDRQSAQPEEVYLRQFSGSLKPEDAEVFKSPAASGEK

SMILES | Efficacy [1] [%] | EC50 [2] [nM] | Ki [3] [nM] | Efficacy [4] [%] | IC50 [2] [nM]
C=C(C)[C@]12C[C@@H](C)[C@@]34O[C@](Cc5ccccc5)(O[C@@H]1[C@@H]3C=C(COC(=O)Cc1cc(OC)c(OC(C)=O)cc1I)C[C@]1(O)C(=O)C(C)=C[C@@H]41)O2 | 75 | 935 | 1.46 | – | –
C=C(C)[C@]12C[C@@H](C)[C@@]34O[C@](Cc5ccccc5)(O[C@@H]1[C@@H]3C=C(COC(=O)Cc1cc(OC)c(O)cc1I)C[C@]1(O)C(=O)C(C)=C[C@@H]41)O2 | 50 | 130 | 0.71 | 92 | –
C=C(C)[C@]12C[C@@H](C)[C@@]34OC(Cc5ccccc5)(O[C@@H]1[C@@H]3C=C(COC(=O)Cc1ccc(O)c(OC)c1I)C[C@]1(O)C(=O)C(C)=C[C@@H]41)O2 | – | – | 1.4 | – | 27
C=C(C)[C@]12C[C@@H](C)[C@@]34O[C@](Cc5ccccc5)(O[C@@H]1[C@@H]3C=C(COC(=O)Cc1ccc(O)c(OC)c1)C[C@]1(O)C(=O)C(C)=CC41)O2 (single isomer, unassigned) [RESINIFERATOXIN] | 116 | 1.9 | 0.48 | – | –
